Measured values published in patent US20260209189A1, “ISOXAZOLINE-SUBSTITUTED BENZAMIDE COMPOUND AND APPLICATION THEREOF” (priority 2022, published 2026).
Read-outs that look alike come from different tables or passages of the source.

Key:
Type in all cases: in vivo
[1] = test system: Tetranychus urticae; assay: Insecticidal activity assay, peanut leaf dip, adult mite; conditions: 48 h
Experimental: (§1) The compound of the present invention was dissolved in acetone, and then diluted with water into liquids with gradients of different concentrations (ppm). Corn leaves were soaked in liquids of different concentrations for about 20 seconds, air-dried and then placed in petri dishes where 3rd instar Spodoptera frugiperda were placed, respectively; kale leaves were soaked in liquids of different concentrations for about 20 seconds, air-dried and then placed in petri dishes where 3rd instar Spodoptera frugiperda were placed, respectively; peanut leaves were soaked in liquids of different concentrations for about 20 seconds, air-dried and then placed in petri dishes where Tetranychus urticae (adult mite) and Aphis craccivora (adult aphid) were placed, respectively; water bamboo leaves were soaked in liquids of different concentrations for about 20 seconds, air-dried and then placed in petri dishes where 4th instar Chilo suppressalis were placed, respectively. Each petri dish was placed with 10 insects, covered and then stored at 25° C. in a constant temperature room. The number of dead insects were checked after 48 h. The dead insect rate was calculated by the formula: Death rate (%)=(Number of dead insects/Number of test insects)×100. Furthermore, the experiment was conducted in two replications.

[2] = test system: Spodoptera frugiperda; assay: Insecticidal activity assay, corn leaf dip, 3rd instar larvae; conditions: liquid concentration 0.3 ppm, 48 h
Experimental: as §1

[3] = test system: Spodoptera exigua; assay: Insecticidal activity assay, kale leaf dip, 3rd instar larvae; conditions: liquid concentration 0.3 ppm, 48 h
[4] = test system: Spodoptera frugiperda; assay: Assay of insecticidal activity of compositions (synergism), 3rd instar; conditions: for pest or weed control at 1 µg/mL: B 1 ppm; for pest or weed control at 50 µg/mL: B 50 ppm
Experimental: as §1
• Test targets: Spodoptera frugiperda (3rd instar) and Aphis gossypii (adult aphid) […]
(§2) Different ratios within the selected ratio range were set for toxicity determination, and the optimal ratio was selected according to synergistic effects. When the synergistic effect >0, it indicated a synergistic effect; when the synergistic effect is close to 0, it indicated an addition effect; when the synergistic effect <0, it indicated an antagonistic effect.
(§3) [formula] • wherein, P1, P2—Death rate by each individual agent in a mixed formulation.

[5] = test system: Aphis gossypii; assay: Assay of insecticidal activity of compositions (synergism), zucchini leaves, adult aphid; conditions: for pest or weed control at 5 µg/mL: B 5 ppm
Experimental: as §1
• Test targets: Spodoptera frugiperda (3rd instar) and Aphis gossypii (adult aphid)
Referring to the above-mentioned Insecticidal activity assay, when the test target was Aphis gossypii, the zucchini leaves were selected.
as §2, §3

[6] = test system: Aphis craccivora; assay: Insecticidal activity assay, peanut leaf dip, adult aphid; conditions: liquid concentration 8.1 ppm, 48 h
Experimental: as §1

[7] = 48 h, read-out: Death rate by individual B
[8] = 48 h, B 2 ppm, read-out: Death rate by individual B
[9] = in Cucurbita pepo, 48 h, B 1 ppm, read-out: Death rate by individual B
[10] = in Cucurbita pepo, 48 h, read-out: Death rate by individual B

In the case of `C=CCOC(=O)C(C)NC(=O)c1ccc(C2=NOC(c3cc(Cl)c(Cl)c(C(F)(F)F)c3)(C(F)(F)F)C2)cc1C` (mixture of isomers) [41 (2R)], the Death rate ([1]; liquid concentration 0.9 ppm) is reported as 75%.
`C#CCOC(=O)C(C)NC(=O)c1ccc(C2=NOC(c3cc(Cl)c(Cl)c(C(F)(F)F)c3)(C(F)(F)F)C2)cc1C` (mixture of isomers) [43 (2R)] showed a Death rate ([1]; liquid concentration 0.9 ppm) of 85%.
For `Cc1cc(C2=NOC(c3cc(Cl)c(Cl)c(C(F)(F)F)c3)(C(F)(F)F)C2)ccc1C(=O)NC(C)C(=O)OCCO` (mixture of isomers) [57 (2R)], the Death rate ([1]; liquid concentration 8.1 ppm) was 90%.
`COC(=O)C(Cc1ccccc1)NC(=O)c1ccc(C2=NOC(c3cc(Cl)c(Cl)c(C(F)(F)F)c3)(C(F)(F)F)C2)cc1C` (mixture of isomers) [131 (2R)] gave a Death rate ([1]; liquid concentration 8.1 ppm) of 80%.
`COC(=O)C(C)NC(=O)c1ccc(C2=NOC(c3cc(Cl)c(Cl)c(C(F)(F)F)c3)(C(F)(F)F)C2)cc1C(C)C` (mixture of isomers) [141 (2R)] was tested, and the Death rate [2] was 90%.
Work on `COC(=O)C(CC(N)=O)NC(=O)c1ccc(C2=NOC(c3cc(Cl)c(Cl)c(C(F)(F)F)c3)(C(F)(F)F)C2)cc1C` (mixture of isomers) [179 (2R)] yielded a Death rate ([1]; liquid concentration 8.1 ppm) of 80%.
`COC(=O)C(CCSC)NC(=O)c1ccc(C2=NOC(c3cc(Cl)c(Cl)c(C(F)(F)F)c3)(C(F)(F)F)C2)cc1C` (mixture of isomers) [180 (2R)] showed a Death rate ([1]; liquid concentration 8.1 ppm) of 45%.
`COC(=O)C(C)NC(=O)c1ccc(C2=NOC(c3cc(F)c(F)c(C(F)(F)F)c3)(C(F)(F)F)C2)cc1C` (mixture of isomers) [181 (2R)] gave a Death rate ([1]; liquid concentration 8.1 ppm) of 70%.
Compound `COC(=O)C(C)NC(=O)c1ccc(C2=NOC(c3cc(Cl)c(OC)c(C(F)(F)F)c3)(C(F)(F)F)C2)cc1C` (mixture of isomers) [183 (2R)] has a Death rate [2] of 100% and a Death rate [3] of 100%.
Compound `COC(=O)C(C)NC(=O)c1ccc(C2=NOC(c3cc(Cl)c(SC)c(C(F)(F)F)c3)(C(F)(F)F)C2)cc1C` (mixture of isomers) [187 (2R)] has a Death rate ([1]; liquid concentration 8.1 ppm) of 63%.
In the case of `Cc1c(COC(=O)[C@@H]2[C@H](/C=C(\Cl)C(F)(F)F)C2(C)C)cccc1-c1ccccc1` (racemic) [Bifenthrin, reference compound], the pest or weed control at 1 µg/mL [4, 7] is reported as 22%.
With `CC1(C)[C@H](C(=O)O[C@H](C#N)c2cccc(Oc3ccccc3)c2)[C@@H]1/C=C(\Cl)C(F)(F)F` (racemic) [lambda-cyhalothrin, lambda-Cyhalothrin, reference compound] the pest or weed control at 2 µg/mL [4, 8] was 41%.
`COP(=O)(NC(C)=O)SC` (stereo not shown) [Acephate, reference compound] showed a pest or weed control at 300 µg/mL [4, 7] of 38%.
`C/C(=N\C#N)N(C)Cc1ccc(Cl)nc1` [Acetamiprid, reference compound] showed a pest or weed control at 1 µg/mL [5, 9] of 52%.
With `C[C@]1(COC(=O)C2CC2)[C@@H]2C[C@H](O)[C@@]3(C)Oc4cc(-c5cccnc5)oc(=O)c4[C@H](O)[C@@H]3[C@@]2(C)CC[C@@H]1OC(=O)C1CC1` [Afidopyropen, reference compound] the “Death rate by individual B” value ([5]; B 1 ppm) was 68%.
For `CC(C)N1C(=O)N(c2ccccc2)CS/C1=N\C(C)(C)C` [Buprofezin, reference compound], the pest or weed control at 10 µg/mL ([4]; 48 h, B 10 ppm, read-out: Death rate by individual B) was 36%.
In the case of `CNC(=O)c1cc(Cl)cc(C)c1NC(=O)c1cc(Br)nn1-c1ncccc1Cl` [Chlorantraniliprole, reference compound], the pest or weed control at 0.5 µg/mL ([4]; 48 h, B 0.5 ppm, read-out: Death rate by individual B) is reported as 50%.
In the case of `CCOCn1c(-c2ccc(Cl)cc2)c(C#N)c(Br)c1C(F)(F)F` [Chlorfenapyr, reference compound], the pest or weed control at 50 µg/mL [4, 7] is reported as 59%.
`CN/C(=N\[N+](=O)[O-])NCc1cnc(Cl)s1` [Clothianidin, reference compound] was tested, and the pest or weed control at 5 µg/mL [5, 10] was 42%.
`COC(=O)[C@@H](C)N(C)C(=O)c1ccc(C2=NOC(c3cc(Cl)c(Cl)c(C(F)(F)F)c3)(C(F)(F)F)C2)cc1C` (stereo partly drawn) [Compound 4 (2R)] showed a Death rate [2] of 100%.
`CCOC(=O)[C@@H](C)NC(=O)c1ccc(C2=NOC(c3cc(Cl)c(Cl)c(C(F)(F)F)c3)(C(F)(F)F)C2)cc1C` (stereo partly drawn) [Compound 30 (2R)] gave a Death rate [2] of 90% and a Death rate ([1]; liquid concentration 0.9 ppm) of 80%.
With `COC(=O)C(NC(=O)c1ccc(C2=NOC(c3cc(Cl)c(Cl)c(C(F)(F)F)c3)(C(F)(F)F)C2)cc1C)C(C)C` (stereo not shown) [Compound 111] the Death rate [6] was 40% and the Death rate [3] was 60%.
`COC(=O)C(NC(=O)c1ccc(C2=NOC(c3cc(Cl)c(Cl)c(C(F)(F)F)c3)(C(F)(F)F)C2)cc1C)C1CC1` (stereo not shown) [Compound 118] was tested, and the Death rate [6] was 40% and the Death rate [3] was 60%.
Work on `COC(=O)C(NC(=O)c1ccc(C2=NOC(c3cc(Cl)c(Cl)c(C(F)(F)F)c3)(C(F)(F)F)C2)cc1C)OC` (stereo not shown) [Compound 124] yielded a Death rate [2] of 80%, a Death rate [3] of 70% and a Death rate ([1]; liquid concentration 8.1 ppm) of 77%.
For `Cc1cc(C2=NOC(c3cc(Cl)c(Cl)c(C(F)(F)F)c3)(C(F)(F)F)C2)ccc1C(=O)N[C@H](C)C(=O)O` (stereo partly drawn) [Compound 151 (2R)], the Death rate ([1]; liquid concentration 8.1 ppm) was 100%.
For `Cc1cc(C2=NOC(c3cc(Cl)c(Cl)c(C(F)(F)F)c3)(C(F)(F)F)C2)ccc1C(=O)NC(C)C(=O)O` [Compound 151 (5S, 2R)], the Death rate ([1]; liquid concentration 8.1 ppm) was 100%.
`COC(=O)C(C)NC(=O)c1ccc(C2=NOC(c3cc(Cl)c(OC)c(C(F)(F)F)c3)(C(F)(F)F)C2)cc1C` [Compound 183 (5S, 2R)] gave a Death rate ([1]; liquid concentration 8.1 ppm) of 70%.
`CNC(=O)c1cc(C#N)cc(C)c1NC(=O)c1cc(Br)nn1-c1ncccc1Cl` [Cyantraniliprole, reference compound] was tested, and the pest or weed control at 5 µg/mL [5, 10] was 36%.
In the case of `CCn1nc(C)cc1/C(OC(=O)C(C)(C)C)=C(/C#N)c1ccc(C(C)(C)C)cc1` [Cyetpyrafen, reference compound], the “Death rate by individual B” value ([4]; B 100 ppm) is reported as 30%.
`CC(C)c1cc(Oc2ccccc2)cc(C(C)C)c1NC(=S)NC(C)(C)C` [Diafenthiuron, reference compound] was tested, and the pest or weed control at 100 µg/mL [4, 7] was 49%.
`CN/C(=N/CC1CCOC1)N[N+](=O)[O-]` (stereo not shown) [Dinotefuran, reference compound] gave a pest or weed control at 5 µg/mL [5, 10] of 40%.
`CC[S+]([O-])c1c(C#N)nn(-c2c(Cl)cc(C(F)(F)F)cc2Cl)c1N` (stereo not shown) [Ethiprole, reference compound] gave a pest or weed control at 5 µg/mL [5, 10] of 33%.
With `N#Cc1nn(-c2c(Cl)cc(C(F)(F)F)cc2Cl)c(N)c1[S+]([O-])C(F)(F)F` (stereo not shown) [Fipronil, reference compound] the pest or weed control at 1 µg/mL [4, 7] was 43%.
`O=[N+]([O-])NC1=NCCN1Cc1ccc(Cl)nc1` [Imidacloprid, reference compound] showed a pest or weed control at 1 µg/mL [5, 9] of 53%.
For `COC(=O)N(C(=O)N1CO[C@@]2(C(=O)OC)Cc3cc(Cl)ccc3C2=N1)c1ccc(OC(F)(F)F)cc1` [Indoxacarb, reference compound], the “Death rate by individual B” value ([4]; B 0.5 ppm) was 36%.
With `O=C(NC(=O)c1c(F)cccc1F)Nc1cc(Cl)c(OC(F)(F)C(F)C(F)(F)F)cc1Cl` (stereo not shown) [Lufenuron, reference compound] the pest or weed control at 50 µg/mL [4, 7] was 38%.
In the case of `COc1cccc(C(=O)NN(C(=O)c2cc(C)cc(C)c2)C(C)(C)C)c1C` [Methoxyfenozide, reference compound], the pest or weed control at 2 µg/mL [4, 8] is reported as 31%.
With `CCN(Cc1ccc(Cl)nc1)/C(=C/[N+](=O)[O-])NC` [Nitenpyram, reference compound] the pest or weed control at 1 µg/mL [5, 9] was 36%.
`CC1=NNC(=O)N(/N=C/c2cccnc2)C1` [Pymetrozine, reference compound] showed a pest or weed control at 50 µg/mL [4, 7] of 30%.
For `Cc1cc(C)c(C2=C(OC(=O)CC(C)(C)C)C3(CCCC3)OC2=O)c(C)c1` [Spiromesifen, reference compound], the “Death rate by individual B” value ([4]; B 100 ppm) was 49%.
In the case of `CCOC(=O)OC1=C(c2c(C)cc(Cl)cc2C)C(=O)N(C)C12CCN(OC)CC2` [Spiropidion, reference compound], the “Death rate by individual B” value ([4]; B 2 ppm) is reported as 39%.
With `CCOC(=O)OC1=C(c2cc(C)ccc2C)C(=O)N[C@]12CC[C@@H](OC)CC2` [Spirotetramat, reference compound] the pest or weed control at 100 µg/mL ([4]; 48 h, B 100 ppm, read-out: Death rate by individual B) was 47%.
Work on `CC(c1ccc(C(F)(F)F)nc1)S(C)(=O)=NC#N` (stereo not shown) [Sulfoxaflor, reference compound] yielded a pest or weed control at 2 µg/mL ([5]; in Cucurbita pepo, 48 h, B 2 ppm, read-out: Death rate by individual B) of 46%.
Work on `CN1COCN(Cc2cnc(Cl)s2)/C1=N\[N+](=O)[O-]` [Thiamethoxam, reference compound] yielded a pest or weed control at 1 µg/mL [5, 9] of 64%.
`CCc1nn(C)c(C(=O)NCc2ccc(Oc3ccc(C)cc3)cc2)c1Cl` [Tolfenpyrad, reference compound] showed a pest or weed control at 1 µg/mL [5, 9] of 35%.
In the case of `O=c1c(-c2cccc(C(F)(F)F)c2)c([O-])[n+](Cc2cncnc2)c2ccccn12` [Triflumezopyrim, reference compound], the “Death rate by individual B” value ([4]; B 100 ppm) is reported as 33%.
With Abamectin [reference compound] the “Death rate by individual B” value ([4]; B 100 ppm) was 25%.
With Emamectin-benzoate [reference compound] the “Death rate by individual B” value ([4]; B 2 ppm) was 37%.
Spinetoram [reference compound] was tested, and the “Death rate by individual B” value ([4]; B 0.5 ppm) was 62%.
